Assay results: patent US9650379B2 (CHONG KUN DANG PHARMACEUTICAL CORP., priority 2013, dated 2017)

Assays:
HDAC6 human recombinant = biological target: T1, HDAC6 human recombinant (Homo sapiens, UniProt Q9UBN7); test: Inhibition of HDAC6 activity (fluorimetric assay); assay type: biochemical; settings: test concentrations 0.1, 1, 10, 100 and 1000 nM; 37° C., 60 minutes
T1 construct: purchased Calbiochem 382180
T1 sequence (Q9UBN7 1-1215): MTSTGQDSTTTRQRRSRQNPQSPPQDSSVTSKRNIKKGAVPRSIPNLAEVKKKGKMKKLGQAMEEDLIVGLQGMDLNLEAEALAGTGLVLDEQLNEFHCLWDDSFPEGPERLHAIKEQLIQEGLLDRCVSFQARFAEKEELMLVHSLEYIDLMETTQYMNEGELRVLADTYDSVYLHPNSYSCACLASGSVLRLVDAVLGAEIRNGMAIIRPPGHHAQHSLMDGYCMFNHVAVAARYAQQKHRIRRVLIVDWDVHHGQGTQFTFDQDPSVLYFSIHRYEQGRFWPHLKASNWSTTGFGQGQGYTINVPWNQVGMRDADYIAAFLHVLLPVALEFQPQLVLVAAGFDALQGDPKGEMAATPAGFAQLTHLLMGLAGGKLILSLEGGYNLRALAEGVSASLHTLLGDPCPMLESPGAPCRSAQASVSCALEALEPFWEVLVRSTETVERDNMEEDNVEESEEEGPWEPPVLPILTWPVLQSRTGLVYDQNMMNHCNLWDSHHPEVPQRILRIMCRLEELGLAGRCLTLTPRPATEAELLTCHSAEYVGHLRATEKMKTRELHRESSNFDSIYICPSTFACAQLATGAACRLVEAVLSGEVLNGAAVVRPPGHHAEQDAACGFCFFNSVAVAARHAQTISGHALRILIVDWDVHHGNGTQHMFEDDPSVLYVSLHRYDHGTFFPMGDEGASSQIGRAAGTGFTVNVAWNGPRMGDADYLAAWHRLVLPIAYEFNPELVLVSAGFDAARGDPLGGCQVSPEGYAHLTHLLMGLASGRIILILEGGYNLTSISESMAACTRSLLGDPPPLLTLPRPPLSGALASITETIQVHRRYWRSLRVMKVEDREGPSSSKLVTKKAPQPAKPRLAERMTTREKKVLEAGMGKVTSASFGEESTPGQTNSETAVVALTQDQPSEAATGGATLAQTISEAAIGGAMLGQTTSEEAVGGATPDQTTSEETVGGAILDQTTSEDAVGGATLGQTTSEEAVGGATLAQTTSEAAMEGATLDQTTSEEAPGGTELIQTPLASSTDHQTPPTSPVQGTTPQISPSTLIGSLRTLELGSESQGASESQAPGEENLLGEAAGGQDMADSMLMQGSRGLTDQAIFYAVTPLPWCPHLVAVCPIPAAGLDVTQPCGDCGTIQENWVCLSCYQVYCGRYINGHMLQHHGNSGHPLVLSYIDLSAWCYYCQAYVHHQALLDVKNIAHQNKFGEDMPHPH
In short: (§1)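 HDAC1 tested with the kit assay mixture at 100, 1000 and 10000 nM compound; recombinant human HDAC6 at 0.1, 1, 10, 100 and 1000 nM. Reaction ran 60 min at 37° C, then developer was added for 30 min at 37° C and fluorescence quantified.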

HDAC1 = biological target: T2, HDAC1 (Homo sapiens, UniProt Q13547); test: Inhibition of HDAC1 activity (HDAC1 fluorimetric drug discovery assay kit); assay type: biochemical; settings: test concentrations 100, 1000 and 10000 nM; 37° C., 60 minutes
T2 construct: purchased Enzolifesciences BML-AK511
In short: as §1

T2 sequence (Q13547 whole entry): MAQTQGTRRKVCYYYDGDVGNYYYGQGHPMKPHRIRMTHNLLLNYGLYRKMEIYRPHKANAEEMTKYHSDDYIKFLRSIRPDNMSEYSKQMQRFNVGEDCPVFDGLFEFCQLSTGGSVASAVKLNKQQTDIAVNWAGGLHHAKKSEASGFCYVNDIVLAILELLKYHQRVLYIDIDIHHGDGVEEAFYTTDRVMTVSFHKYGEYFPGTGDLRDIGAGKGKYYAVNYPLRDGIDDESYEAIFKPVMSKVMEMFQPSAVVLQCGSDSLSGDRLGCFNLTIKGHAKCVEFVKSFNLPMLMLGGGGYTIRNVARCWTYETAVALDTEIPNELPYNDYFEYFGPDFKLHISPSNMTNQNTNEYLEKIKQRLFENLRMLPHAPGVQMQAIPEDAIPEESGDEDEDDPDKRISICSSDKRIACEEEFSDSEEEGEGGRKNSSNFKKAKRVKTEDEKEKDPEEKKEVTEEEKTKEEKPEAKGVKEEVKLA

SMILES	IC50 (HDAC6 human recombinant)	IC50 (HDAC1)
O=C(NO)c1ccc(Cn2ccc3cc(C4CCN(Cc5ccc(-n6ccnc6)cc5)CC4)cnc32)cc1 [Compound 873, 4-((5-(1-(4-(1H-imidazol-1-yl)benzyl)piperidin-4-yl)-1H-pyrrolo[2,3-b]pyridin-1-yl)methyl)-N-hydroxybenzamide]	16.5 nM	760 nM
O=C(NO)c1ccc(Cn2ccc3cc(C4CCN(Cc5ccc(-n6cnnc6)cc5)CC4)cnc32)cc1 [Compound 874, 4-((5-(1-(4-(4H-1,2,4-triazol-4-yl)benzyl)piperidin-4-yl)-1H-pyrrolo[2,3-b]pyridin-1-yl)methyl)-N-hydroxybenzamide]	18.5 nM	690 nM
CN1CCN(Cc2ccc(CN3CCC(c4cnc5c(ccn5Cc5ccc(C(=O)NO)cc5)c4)CC3)cc2)CC1 [Compound 877, N-hydroxy-4-((5-(1-(4-((4-methylpiperazin-1-yl)methyl)benzyl)piperidin-4-yl)-1H-pyrrolo[2,3-b]pyridin-1-yl)methyl)benzamide]	8.7 nM	770 nM
O=C(NO)c1ccc(Cn2ccc3cc(C4CCN(Cc5cccc(CN6CCOCC6)c5)CC4)cnc32)cc1 [Compound 878, N-hydroxy-4-((5-(1-(3-(morpholinomethyl)benzyl)piperidin-4-yl)-1H-pyrrolo[2,3-b]pyridin-1-yl)methyl)benzamide]	6.4 nM	1120 nM
CN1CCN(Cc2cccc(CN3CCC(c4cnc5c(ccn5Cc5ccc(C(=O)NO)cc5)c4)CC3)c2)CC1 [Compound 879, N-hydroxy-4-((5-(1-(3-((4-methylpiperazin-1-yl)methyl)benzyl)piperidin-4-yl)-1H-pyrrolo[2,3-b]pyridin-1-yl)methyl)benzamide]	7.6 nM	1050 nM
O=C(NO)c1ccc(Cn2ccc3cc(C4CCN(Cc5cncnc5)CC4)cnc32)cc1 [Compound 880, N-hydroxy-4-((5-(1-(pyrimidin-5-ylmethyl)piperidin-4-yl)-1H-pyrrolo[2,3-b]pyridin-1-yl)methyl)benzamide]	6 nM	770 nM
CN1CCN(Cc2cccc(C(=O)N3CCC(c4cnc5c(ccn5Cc5ccc(C(=O)NO)cc5)c4)CC3)c2)CC1 [Compound 896, N-hydroxy-4-((5-(1-(3-((4-methylpiperazin-1-yl)methyl)benzoyl)piperidin-4-yl)-1H-pyrrolo[2,3-b]pyridin-1-yl)methyl)benzamide]	8.6 nM	800 nM
O=C(NO)c1ccc(Cn2ccc3cc(C4CCN(C(=O)c5ccc(CN6CCOCC6)cc5)CC4)cnc32)cc1 [Compound 897, N-hydroxy-4-((5-(1-(4-(morpholinomethyl)benzoyl)piperidin-4-yl)-1H-pyrrolo[2,3-b]pyridin-1-yl)methyl)benzamide]	7.4 nM	1090 nM
CN1CCN(Cc2ccc(C(=O)N3CCC(c4cnc5c(ccn5Cc5ccc(C(=O)NO)cc5)c4)CC3)cc2)CC1 [Compound 898, N-hydroxy-4-((5-(1-(4-((4-methylpiperazin-1-yl)methyl)benzoyl)piperidin-4-yl)-1H-pyrrolo[2,3-b]pyridin-1-yl)methyl)benzamide]	6.2 nM	780 nM
O=C(O)CN1CCC(c2ccnc3c2ccn3Cc2ccc(C(=O)NO)cc2)CC1 [Compound 917, 2-(4-(1-(4-(hydroxycarbamoyl)benzyl)-1H-pyrrolo[2,3-b]pyridin-4-yl)piperidin-1-yl)acetic acid]	5.8 nM	780 nM
CC(O)(CO)CN1CCC(c2cnc3c(ccn3Cc3ccc(C(=O)NO)cc3)c2)CC1 (stereo not drawn) [Compound 946, 4-((5-(1-(2,3-dihydroxy-2-methylpropyl)piperidin-4-yl)-1H-pyrrolo[2,3-b]pyridin-1-yl)methyl)-N-hydroxybenzamide]	2 nM	490 nM
O=C(NO)c1ccc(Cn2ccc3cc(N4CCC5(CC4)CN(Cc4cccnc4)C5)cnc32)cc1 [Compound 957, N-hydroxy-4-((5-(2-(pyridin-3-ylmethyl)-2,7-diazaspiro[3.5]nonan-7-yl)-1H-pyrrolo[2,3-b]pyridin-1-yl)methyl)benzamide]	1.6 nM	650 nM
O=C(NO)c1ccc(Cn2ccc3c(C4CCN(Cc5ncccn5)CC4)ccnc32)cc1 [Compound 966, N-hydroxy-4-((4-(1-(pyrimidin-2-ylmethyl)piperidin-4-yl)-1H-pyrrolo[2,3-b]pyridin-1-yl)methyl)benzamide]	3.8 nM	280 nM

The remaining compounds from weak to strong by IC50 (HDAC6 human recombinant), led by results:

IC50 (HDAC6 human recombinant)	IC50 (HDAC1)	SMILES
42 nM	2800 nM	O=C(NO)c1ccc(Cn2ccc3cc(C4CCN(S(=O)(=O)c5ccccc5)CC4)cnc32)cc1 [Compound 876, N-hydroxy-4-((5-(1-(phenylsulfonyl)piperidin-4-yl)-1H-pyrrolo[2,3-b]pyridin-1-yl)methyl)benzamide]
32.4 nM	2320 nM	O=C(NO)c1ccc(Cn2ccc3cc(C4CCN(Cc5ccc(-c6ccco6)cc5)CC4)cnc32)cc1 [Compound 875, 4-((5-(1-(4-(furan-2-yl)benzyl)piperidin-4-yl)-1H-pyrrolo[2,3-b]pyridin-1-yl)methyl)-N-hydroxybenzamide]
12 nM	900 nM	COc1ccc(CN2CCC(c3ccnc4c3ccn4Cc3ccc(C(=O)NO)cc3)CC2)cc1 [Compound 959, N-hydroxy-4-((4-(1-(4-methoxybenzyl)piperidin-4-yl)-1H-pyrrolo[2,3-b]pyridin-1-yl)methyl)benzamide]
7.6 nM	1060 nM	O=C(NO)c1ccc(Cn2ccc3cc(C4CCN(C(=O)c5cccc(CN6CCOCC6)c5)CC4)cnc32)cc1 [Compound 895, N-hydroxy-4-((5-(1-(3-(morpholinomethyl)benzoyl)piperidin-4-yl)-1H-pyrrolo[2,3-b]pyridin-1-yl)methyl)benzamide]
7.5 nM	1140 nM	O=C(NO)c1ccc(Cn2ccc3cc(C4CCN(Cc5ccc(CN6CCOCC6)cc5)CC4)cnc32)cc1 [Compound 882, N-hydroxy-4-((5-(1-(4-(morpholinomethyl)benzyl)piperidin-4-yl)-1H-pyrrolo[2,3-b]pyridin-1-yl)methyl)benzamide]
5.3 nM	850 nM	O=C(NO)c1ccc(Cn2ccc3cc(C4CCN(Cc5ncccn5)CC4)cnc32)cc1 [Compound 881, N-hydroxy-4-((5-(1-(pyrimidin-2-ylmethyl)piperidin-4-yl)-1H-pyrrolo[2,3-b]pyridine-1-yl)methyl)benzamide]
4.5 nM	830 nM	O=C(O)CCN1CCC(c2ccnc3c2ccn3Cc2ccc(C(=O)NO)cc2)CC1 [Compound 927, 3-(4-(1-(4-(hydroxycarbamoyl)benzyl)-1H-pyrrolo[2,3-b]pyridin-4-yl)piperidin-1-yl)propionic acid]
3.7 nM	200 nM	CC(O)(CO)CN1CCC(c2ccnc3c2ccn3Cc2ccc(C(=O)NO)cc2)CC1 (stereo not drawn) [Compound 945, 4-((4-(1-(2,3-dihydroxy-2-methylpropyl)piperidin-4-yl)-1H-pyrrolo[2,3-b]pyridin-1-yl)methyl)-N-hydroxybenzamide]
3.7 nM	830 nM	CC(C)(O)CN1CC2(CCN(c3cnc4c(ccn4Cc4ccc(C(=O)NO)cc4)c3)CC2)C1 [Compound 956, N-hydroxy-4-((5-(2-(2-hydroxy-2-methylpropyl)-2,7-diazaspiro[3.5]nanan-7-yl)-1H-pyrrolo[2,3-b]pyridin-1-yl)methyl)benzamide]
2.1 nM	2090 nM	CN1CCN(c2ccccc2CN2CCC(c3cnc4c(ccn4Cc4ccc(C(=O)NO)cc4)c3)CC2)CC1 [Compound 883, N-hydroxy-4-((5-(1-(2-(4-methylpiperzin-1-yl)benzyl)piperidin-4-yl)-1H-pyrrolo[2,3-b]pyridin-1-yl)methyl)benzamide]
1.7 nM	250 nM	CC(C)(O)CN1C2CCC1CC(c1ccnc3c1ccn3Cc1ccc(C(=O)NO)cc1)C2 (stereo not drawn) [Compound 930, N-hydroxy-4-((4-(8-(2-hydroxy-2-methylpropyl)-8-aza-bicyclo[3.2.1]octan-3-yl)-1H-pyrrolo[2,3-b]pyridin-1-yl)methyl)benzamide]
